Assay type in all cases: cell-based
The test system of test [1] is Sox17 expression in human embryonic stem cells (H9 line). In words: High content screening assay: Sox17 protein expression (differentiation). In outline:
(§1)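 H9 hESCs on MATRIGEL treated days 1-2 with 10 μM compound in DMEM:F12, 0.5% FCS, 100 ng/ml activin A; days 3-4 with 2% FCS plus activin A without compound. Fixed cells immunostained for Sox17 or HNF-3beta with Draq5 nuclear counterstain. Cell number and staining intensity quantified by high-content imaging, 12 fields/well.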

The subject of test [2] is HNF-3beta expression in human embryonic stem cells (H9 line). Kind of test: High content screening assay: HNF-3beta protein expression (differentiation). In outline: as §1
The test system of test [3] is human embryonic stem cells (H9 or H1 lines). In words: Plate reader (MTS) proliferation assay. Conditions: for activity at 10 µM: Homo sapiens, Embryonic stem cell, 96 h, 10 μM test compound with 100 ng/ml activin A on days 1-2, MTS OD490 on day 4, vs Activin A/Wnt3a positive control, strong and moderate hits; for Average: average of replicate raw data. In a few lines:
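H9 or H1 cells on Matrigel, washed, then given DMEM:F12 with 0.5% FCS, 100 ng/ml activin A and 10 μM compound (days 1–2), then 2% FCS plus activin A (days 3–4). MTS added day 4, OD490 read after 1.5–4 h at 37 °C; triplicates as percent of activin A/Wnt3a control.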

The test system of test [4] is human embryonic stem cells (H9 line). In words: High content screening assay: cell number (proliferative response). In a few lines: as §1
Setting [5] is: cell number in the wells analysed for HNF-3b expression.
[6] abbreviates: cell number in the wells analysed for SOX-17 expression.

The source of these data is US20130337564A1, “Treatment of Pluripotent Cells” (Janssen Biotech, Inc., priority 2012, published 2013).

Turning to `Cn1cc(C2=C(c3nn(CCCn4ccnn4)c4ccccc34)C(=O)NC2=O)c2cc(Cl)ccc21` [Compound 232, 3-(5-Chloro-1-methyl-1H-indol-3-yl)-4-{1-[3-(1H-1,2,3-triazol-1-yl)propyl]-1H-indazol-3-yl}-1H-pyrrole-2,5-dione], the fold induction at 10 µM in test [1] (Homo sapiens, Embryonic stem cell, 10 μM test compound with 100 ng/ml activin A on days 1-2, H9, total intensity by IN Cell Analyzer, strong and moderate hits, read-out: SOX17 Expression, Fold over Wnt 3a/AA control) was determined as 1.07; in test [2] (Homo sapiens, Embryonic stem cell, 10 μM test compound with 100 ng/ml activin A on days 1-2, H9, total intensity by IN Cell Analyzer, strong and moderate hits, read-out: HNF3β Expression, Fold over Wnt 3a/AA control), 0.771; in test [4] (Homo sapiens, Embryonic stem cell, 10 μM test compound with 100 ng/ml activin A on days 1-2, H9, total cell number by IN Cell Analyzer, strong and moderate hits, read-out: Proliferative Response, Fold over Wnt 3a/AA control) it was 1.09. Further, in test [1], the “SOX-17 Expression Total Intensity” value was found to be 1045395000. The “HNF-3b Expression Total Intensity” value in test [2] came out at 854325000. For the same compound, the activity at 10 µM in test [3] worked out at 132%. Also, the Average in test [3] was determined as 1.8323. Besides, the “Proliferative Response Total cells” value was determined as 14950 in test [4] (setting [5]) and 16652 in test [4] (setting [6]).

As for `O=C1NC(=O)C2=C1Nc1cccc(c1)OCCC/C=C\CCCOc1cccc2c1` [Compound 233, (11Z)-8,9,10,13,14,15-Hexahydro-2,6:17,21-di(metheno)pyrrolo[3,4-h][1,15,7]dioxazacyclotricosine-22,24(1H,23H)-dione], the “SOX-17 Expression Total Intensity” value in test [1] was 327055000. For the same compound, the “HNF-3b Expression Total Intensity” value in test [2] amounted to 109160000. Also, in test [3], the activity at 10 µM is 93% and the Average is 1.3325. Moreover, the “Proliferative Response Total cells” value in test [4] (setting [5]) amounted to 4357. The “Proliferative Response Total cells” value in test [4] (setting [6]) came to 6470.
